According to ChEMBL document CHEMBL4411340, “Tuning Nuclear Receptor Selectivity of Wy14,643 towards Selective Retinoid X Receptor Modulation” (J Med Chem, 2019):
Converted amounts (≈) assume the structure as drawn.

Columns and labels:
[1] = Aqueous solubility of the compound in distilled water after 24 hrs by HPLC analysis; assay type: physicochemical; settings: for solubility at 24 h: distilled water; for solubility: buffer, 24 h
[2] = Log D, lipophilicity of the compound by HPLC analysis; assay type: physicochemical
[3] = Metabolic stability in Sprague-Dawley rat liver microsomes assessed as remaining parent compound level at 10 uM preincubated for 5 mins with NADPH generating system followed by liver microsomes addition and measured after 60 mins by HPLC analysis; assay type: ADME, Microsome; settings: read-out: Stability
[4] = Drug uptake in C57BL6/JRj mouse plasma at 10 mg/kg, po administered as single dose and measured after 2 hrs by LS-MS analysis; assay type: ADME, organism-based; settings: in vivo
[5] = Drug uptake in C57BL6/JRj mouse liver at 10 mg/kg, po administered as single dose and measured after 2 hrs by LS-MS analysis; assay type: ADME, organism-based; settings: in vivo
[6] = Half life in C57BL6/JRj mouse at 10 mg/kg, po administered as single dose and measured after 2 hrs by LS-MS analysis; assay type: ADME, organism-based; settings: in vivo
[7] = Drug uptake in C57BL6/JRj mouse brain at 10 mg/kg, po administered as single dose and measured after 2 hrs by LS-MS analysis; assay type: ADME, organism-based; settings: read-out: Drug uptake
[8] = Ratio of drug uptake in C57BL6/JRj mouse brain to plasma at 10 mg/kg, po administered as single dose and measured after 2 hrs by LS-MS analysis; assay type: ADME, organism-based

`Cc1cccc(Nc2cc(Cl)nc(SCC(=O)O)n2)c1C` [PIRINIXIC ACID] showed a solubility at 24 h [1] of 48.6 µg/mL (≈ 150 µM), a logD [2] of 1.63 and a remaining at 1 h, 10 µM [3] of over 50%.

In the case of `CN(c1cc(C(F)(F)F)nc(OCCC(=O)O)n1)c1cccc2c1CCC2`, the solubility [1] was “Soluble”, the remaining at 1 h, 10 µM [3] was over 50% and the Drug uptake [4] was “Active”. For the same compound, the Drug uptake [5] was “Active”, the half-life [6] was 4.2 h and the concentration at 2 h [7] was 275 ng/g. For the same compound, the BPR [8] was 1.5%.

With `O=C(O)CSc1nc(Cl)cc(Nc2cccc3c2CCCC3)n1` the solubility [1] was “Soluble” and the remaining at 1 h, 10 µM [3] was over 50%.

`CCCCC(Sc1nc(Cl)cc(Nc2cccc(C)c2C)n1)C(=O)O` (stereo not given) showed a remaining at 1 h, 10 µM [3] of over 50%.

For `C=C(c1ccc(C(=O)O)cc1)c1cc2c(cc1C)C(C)(C)CCC2(C)C` [BEXAROTENE], the solubility at 24 h [1] was 0.3 µg/mL (≈ 0.861 µM) and the logD [2] was 4.74.
